For assay [1], the target named is T1, L-glutamate-gated chloride channel (native, silkworm larval brain neurons, subunits not identified) (Bombyx mori, UniProt V9P9S1).
T1 construct: native receptors in cultured larval brain neurons
T1 sequence (V9P9S1 25-446): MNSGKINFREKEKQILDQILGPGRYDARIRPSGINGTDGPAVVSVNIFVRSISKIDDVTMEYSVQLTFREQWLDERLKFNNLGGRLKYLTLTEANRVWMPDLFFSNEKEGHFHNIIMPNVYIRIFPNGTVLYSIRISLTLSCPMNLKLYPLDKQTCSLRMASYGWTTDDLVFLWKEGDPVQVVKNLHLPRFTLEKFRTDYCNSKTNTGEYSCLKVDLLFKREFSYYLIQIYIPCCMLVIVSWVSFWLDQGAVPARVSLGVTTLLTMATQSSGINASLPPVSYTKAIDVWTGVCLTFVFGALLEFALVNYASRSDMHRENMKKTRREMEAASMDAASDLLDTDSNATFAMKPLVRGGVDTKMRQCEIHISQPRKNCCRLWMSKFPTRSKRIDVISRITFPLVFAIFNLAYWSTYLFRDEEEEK
As to the kind of experiment: whole-cell patch-clamp, agonist-evoked current at […] (stated to be close to EC50). Type of assay: cell-based. Background: The patch-clamp technique gives a direct electrical read-out from membranes.

Assay [2] has as its system T2, nicotinic acetylcholine receptor (native nAChRs of silkworm larval brain neurons, subunits not identified).
T2 construct: native receptors in cultured larval brain neurons
As to the kind of experiment: whole-cell patch-clamp, agonist concentration-response. Format: cell-based, Bombyx mori.

The test system is the same in assay [3]. The experiment in a line: whole-cell patch-clamp, block of peak ACh-induced current (slowly desensitizing current IC50 […]). Format: cell-based, Bombyx mori.
Assay [4] has as its target T3, α3β4 nicotinic acetylcholine receptor (Gallus gallus, UniProt P09481+P26153).
T3 construct: gene CHRNA3; chicken α3β4 nAChR expressed in Xenopus laevis oocytes; with nAChR β4 subunit
As to the kind of experiment: two-electrode voltage-clamp, weak block:[…] reduction of the ACh response at […]. Format: cell-based.

Each structure is given as a SMILES string.

T3 sequence (P09481 23-496): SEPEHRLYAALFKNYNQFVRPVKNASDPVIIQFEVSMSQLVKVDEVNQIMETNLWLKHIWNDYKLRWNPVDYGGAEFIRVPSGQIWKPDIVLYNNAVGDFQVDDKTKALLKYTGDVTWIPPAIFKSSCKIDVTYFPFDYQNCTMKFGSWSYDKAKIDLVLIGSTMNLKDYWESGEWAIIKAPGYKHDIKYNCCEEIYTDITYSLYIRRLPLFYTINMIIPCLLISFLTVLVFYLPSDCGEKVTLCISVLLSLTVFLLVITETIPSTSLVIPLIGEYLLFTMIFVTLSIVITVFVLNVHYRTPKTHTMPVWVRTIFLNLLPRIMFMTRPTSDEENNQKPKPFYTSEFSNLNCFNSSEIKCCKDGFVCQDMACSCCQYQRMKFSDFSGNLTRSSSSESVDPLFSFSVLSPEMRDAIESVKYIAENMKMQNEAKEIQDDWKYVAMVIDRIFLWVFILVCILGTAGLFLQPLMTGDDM
T3 sequence (P26153 4-470): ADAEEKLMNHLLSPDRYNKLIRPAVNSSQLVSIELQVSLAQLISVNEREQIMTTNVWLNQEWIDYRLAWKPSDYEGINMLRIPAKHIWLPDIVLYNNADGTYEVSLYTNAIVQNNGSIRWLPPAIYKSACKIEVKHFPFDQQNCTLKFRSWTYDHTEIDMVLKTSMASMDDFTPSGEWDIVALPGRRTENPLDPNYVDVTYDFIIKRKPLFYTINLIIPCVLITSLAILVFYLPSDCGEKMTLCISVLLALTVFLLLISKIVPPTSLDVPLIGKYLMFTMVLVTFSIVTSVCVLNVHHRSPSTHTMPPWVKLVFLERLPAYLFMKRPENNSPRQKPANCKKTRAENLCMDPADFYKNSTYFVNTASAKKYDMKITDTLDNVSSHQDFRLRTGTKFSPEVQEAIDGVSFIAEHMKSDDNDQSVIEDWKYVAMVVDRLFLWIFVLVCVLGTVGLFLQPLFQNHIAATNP

The term EC50 denotes the concentration at which the effect is half-maximal. A low value points to greater potency. For the compound `N[C@@H](CCC(=O)O)C(=O)O` [L-glutamate], the EC50 in assay [1] is listed as ~ 30 µM.

The compound `CC(=O)OCC[N+](C)(C)C` [acetylcholine] yielded an EC50 in assay [2] of […].

What is called IC50 is the concentration needed to halve the response being measured. One may read the inhibition as the change of the read-out against control, counted positive when it falls. High values mean a strong effect, low ones a weak effect. In the case of `C[C@H]1CCN2C[C@]34C[C@]5(CC(=O)N(C)C5=O)C(C)(C)[C@@H]3C[C@]12C(=O)N4C` [asperparaline A], in assay [3], the IC50 stood at 0.0202 µM. In assay [4], this compound gave an inhibition at 10 µM of 33.4%.

Values taken from article PMC3069973, “A Fungal Metabolite Asperparaline A Strongly and Selectively Blocks Insect Nicotinic Acetylcholine Receptors: The First Report on the Mode of Action” (PLoS ONE, 2011).
